Experimental data from US20050153395A1, “Unique integrin binding site in connective tissue growth factor (CTGF)” (CHILDREN'S HOSPITAL INC., priority 2003, published 2005).

Columns and labels:
[1] = tested on: hepatic stellate cells (HSC); assay: HSC adhesion assay on coated wells (CyQUANT fluorescence); format: cell-based, rat
Description: CTGF4 is known to be expressed in hepatic stellate cells (HSC) and to induce proliferation and extracellular matrix (ECM) production in these cells. (Williams et al., J Hepatol 32, 754-761, 2000; Paradis et al., Lab Invest 82, 767-774, 2002). The following experiments were carried out to determine if HSCs adhere to CTGF. HSCs were isolated from normal Sprague-Dowley rate by sequential perfusion with pronase/collagenase and purified by density gradient separation as described in Vyas et al. (Gastroenterology 109: 889-898, 1995).
The cells were subsequently detached using 1 mM EDTA PBS (137 mM NaCl, 2.7 mM KCl, 4.3 mM Na2HPO4, 1.4 mM KH2PO4, pH 7.3), washed twice in DMEM and resuspended in serum free medium containing 0.5% BSA. The cells-were plated (1.25×10^4 cells/well) in a 96 well plate coated with one of the following: 2 μg/ml CTGF isoform (CTGF1-4, CTGF3-4, CTGF4), 1 μg/ml laminin, or 4 μg/ml vitronectin and incubated for 20 minutes at 37° C. Subsequently the cells were washed with PBS and the adherent cells were fixed with 10% formalin and stained with CyQUANT GR dye/cell lysis buffer (Molecular Probes , Eugene, Oreg.) according to the manufacturer's instructions. The number of cells that adhered to CTGF isoforms or ECM protein was quantified by measuring the sample fluorescence intensity at Ex/Em: 480/520 nm using a micro-plate reader (CytoFluor™ 2350).
To determine if the CTGF-mediated HSC adhesion was carried out through integrin receptors, the experiment described above were carried out in the presence and absence of 10 mM EDTA. […] It is widely believed that Mn^2+ induces conformational shifts that mimic the physiological activation of β1 and β3 integrins (Roberts et al., J Biol Chem 278: 1975-1985, 2003, van der Pauw et al., J Periodontal Res 37: 317-323, 2002) as Mn^2+-induced activation leads to enhanced ligand-binding affinity and cell adhesion (Mould et al., J Biol Chem 277: 19800-19805, 2002, Loftus & Liddington J Clin Invest 100: S77-81, 1997, Lin et al., J Biol Chem 272: 14236-14243, […]).
Synthetic peptides GRGDsp (1 mM), GRGEsp (1 mM), Echistatin (2 μM) or vehicle buffer alone were added to the, HSC culture medium 30 minutes prior to plating.
In addition, adhesion assays as described in Example 1 were carried out in CTGF4 coated plates in the presence and absence of monoclonal antibody specific for αvβ3 (LM609).

integrin αvβ3 = integrin αvβ3 (Homo sapiens, UniProt P05106+P06756); assay: Integrin αvβ3-CTGF immunoprecipitation / immunoblot; format: binding; details: 20 μM Echistatin
Description: To further characterize the interaction between CTGF4 and integrin αvβ3, each CTGF isoforms (CTGF1-4, CTGF3-4, CTGF4) was individually mixed with αvβ3, followed by immunoprecipitation with rabbit anti-CTGF polyclonal antibody and immunoblotting with anti-αvβ3. Human integrin αvβ3 (2 μg) and each individual CTGF isoform (4 μg) were incubated in 1 ml NP40 buffer with rocking at 4° C. for 2 hours. As a control, 20 μM Echistatin was added prior to adding the CTGF isoforms. Subsequently, polyclonal rabbit anti-CTGF antibody (1:100) or mouse IgG was added to the complex and the mixtures were further incubated at 4° C. for 16 hours. After incubation, 25 ,μl of Protein A was added to each mixture for 1 hour. The samples were separated on 8% SDS-polyacrylamide gels, and transferred onto nitrocellulose. The membrane was then incubated with anti-human αvβ3 monoclonal antibody (1:1000) diluted in TBS/Tween 20 (0.05%) containing 5% non-fat milk. Integrin αvβ3 bound similarly to all CTGF isoforms.

β3 integrin = molecular target: T1, β3 integrin (Homo sapiens, UniProt P05106); details: Gould et al. 1990; cited from earlier work
T1 sequence (P05106 27-788): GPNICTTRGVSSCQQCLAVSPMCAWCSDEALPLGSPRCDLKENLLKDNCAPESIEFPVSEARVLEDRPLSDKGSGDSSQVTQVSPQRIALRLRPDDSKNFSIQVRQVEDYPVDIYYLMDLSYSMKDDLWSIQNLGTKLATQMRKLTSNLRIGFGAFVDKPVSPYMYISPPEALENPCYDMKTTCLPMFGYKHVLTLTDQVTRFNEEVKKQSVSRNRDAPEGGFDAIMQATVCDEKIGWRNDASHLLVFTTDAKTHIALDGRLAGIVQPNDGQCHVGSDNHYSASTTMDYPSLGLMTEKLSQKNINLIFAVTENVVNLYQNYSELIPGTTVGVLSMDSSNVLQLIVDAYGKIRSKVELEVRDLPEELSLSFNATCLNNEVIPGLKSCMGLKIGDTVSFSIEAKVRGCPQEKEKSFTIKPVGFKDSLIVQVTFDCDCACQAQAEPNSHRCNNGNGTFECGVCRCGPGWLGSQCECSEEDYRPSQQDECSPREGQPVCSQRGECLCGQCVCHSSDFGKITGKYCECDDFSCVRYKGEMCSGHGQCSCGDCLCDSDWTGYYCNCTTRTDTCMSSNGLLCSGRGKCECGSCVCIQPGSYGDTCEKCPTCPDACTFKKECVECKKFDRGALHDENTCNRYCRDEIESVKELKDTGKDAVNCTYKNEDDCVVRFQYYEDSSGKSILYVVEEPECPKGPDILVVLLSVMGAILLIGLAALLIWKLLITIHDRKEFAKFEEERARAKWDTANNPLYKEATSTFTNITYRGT

integrin αvβ3, sequence (P06756 31-889 limits assumed, one chain of several): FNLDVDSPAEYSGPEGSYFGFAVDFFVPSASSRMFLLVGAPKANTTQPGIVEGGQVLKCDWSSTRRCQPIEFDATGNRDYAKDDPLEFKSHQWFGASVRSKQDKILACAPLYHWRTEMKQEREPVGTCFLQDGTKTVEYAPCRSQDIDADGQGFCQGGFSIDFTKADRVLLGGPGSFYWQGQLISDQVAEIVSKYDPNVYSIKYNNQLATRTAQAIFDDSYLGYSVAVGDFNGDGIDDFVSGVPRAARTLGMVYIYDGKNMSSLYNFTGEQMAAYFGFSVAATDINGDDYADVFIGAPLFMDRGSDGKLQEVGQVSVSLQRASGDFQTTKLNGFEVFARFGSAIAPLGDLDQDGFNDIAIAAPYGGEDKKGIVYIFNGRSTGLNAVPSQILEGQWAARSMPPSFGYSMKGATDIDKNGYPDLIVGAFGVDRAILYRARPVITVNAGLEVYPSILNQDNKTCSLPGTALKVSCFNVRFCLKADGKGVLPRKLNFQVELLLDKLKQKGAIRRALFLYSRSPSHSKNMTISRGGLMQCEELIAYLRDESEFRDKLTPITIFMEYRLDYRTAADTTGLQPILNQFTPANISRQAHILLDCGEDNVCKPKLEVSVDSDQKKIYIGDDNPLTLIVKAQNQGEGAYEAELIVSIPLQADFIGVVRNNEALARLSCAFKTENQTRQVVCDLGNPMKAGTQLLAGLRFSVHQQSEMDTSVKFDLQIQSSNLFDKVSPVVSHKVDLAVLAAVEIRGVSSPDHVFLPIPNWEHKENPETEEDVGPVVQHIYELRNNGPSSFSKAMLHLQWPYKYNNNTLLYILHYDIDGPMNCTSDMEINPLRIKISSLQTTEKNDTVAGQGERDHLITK
integrin αvβ3, sequence (P06756 891-1048 partner limits assumed, one chain of several): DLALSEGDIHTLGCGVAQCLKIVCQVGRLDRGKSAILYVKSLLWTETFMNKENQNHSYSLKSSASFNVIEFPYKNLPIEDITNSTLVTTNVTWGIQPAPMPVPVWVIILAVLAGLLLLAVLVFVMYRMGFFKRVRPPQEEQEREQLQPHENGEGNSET

## Echistatin (QCESGPCCRNCKFLKEGTICKRARGDDMDDYCNGKTCDCPRNPHKGPAT)
[1]; peptide-coated wells, heparin 2 μg/ml
  inhibition of HSC adherence to CTGF[257-272]: 40%
[1]; wells coated 2 μg/ml CTGF1-4, EDTA 10 mM, GRGDsp 1 mM, Echistatin 2 μM
  inhibition of CTGF1-4-mediated HSC adhesion: 58%
[1]; wells coated 2 μg/ml CTGF3-4, EDTA 10 mM, GRGDsp 1 mM, Echistatin 2 μM
  inhibition of CTGF3-4-mediated HSC adhesion: 62%
[1]; wells coated 2 μg/ml CTGF4, EDTA 10 mM, GRGDsp 1 mM, Echistatin 2 μM, antibody/IgG 25 μg/ml, heparin 2 μg/ml
  inhibition of CTGF4-mediated HSC adhesion: 69%
Integrin αvβ3
  competition for the binding of αvβ3 with CTGF4: fully competed
β3 integrin
  effectiveness relative to short RGDX peptides: at least 500 times
